In ChEMBL document CHEMBL1201862, “PubChem BioAssay data set” (2004):
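Assay format: 96-well plates, 48-hour exposure. GI50 = concentration required for 50% inhibition of growth.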 Activity calls are given as the source filed them. Rule as the data show it: active = GI50 up to about 1.1 µM and inactive = higher. Where a SMILES comes first, the peptide text is derived from it. [ ]: non-standard residue; d: D form. The star is where a group is joined. Bn2Val = CC(C)[C@@H](C(=O)*)N(Cc1ccccc1)Cc1ccccc1; NH(4-F-benzyl) = Fc1ccc(CN*)cc1; NMeV = CN[C@H](C(=O)O)C(C)C; dNMeA = CN[C@H](C)C(=O)O

What was measured:
Experiment in all cases: NCI tumour cell line growth inhibition, 48 h
SNB-19 = system: SNB-19
NCI/ADR-RES = system: NCI/ADR-RES
Malme-3M = system: Malme-3M
SW-620 = system: SW-620
EKVX = system: EKVX
SK-MEL-2 = system: SK-MEL-2
DU-145 = system: DU-145
RXF 393 = system: RXF 393
NCI-H522 = system: NCI-H522
NCI-H23 = system: NCI-H23
UACC-62 = system: UACC-62
HCC 2998 = system: HCC 2998
MDA-MB-435 = system: MDA-MB-435
T47D = system: T47D
PC-3 = system: PC-3
KM12 = system: KM12
CCRF-CEM = system: CCRF-CEM
HT-29 = system: HT-29
UO-31 = system: UO-31
UACC-257 = system: UACC-257

Structure (SMILES) | GI50 (SNB-19) | GI50 (NCI/ADR-RES) | GI50 (Malme-3M) | GI50 (SW-620) | GI50 (EKVX) | GI50 (SK-MEL-2) | GI50 (DU-145) | GI50 (RXF 393) | GI50 (NCI-H522) | GI50 (NCI-H23) | GI50 (UACC-62) | GI50 (HCC 2998) | GI50 (MDA-MB-435) | GI50 (T47D) | GI50 (PC-3) | GI50 (KM12) | GI50 (CCRF-CEM) | GI50 (HT-29) | GI50 (UO-31) | GI50 (UACC-257)
CC1=NN=C(C)C1/N=N/c1ccc2[nH]c(C)nc2c1 | > 100 µM (inactive) | 38.4 µM (inactive) | 6.85 µM (inactive) | 25.3 µM (inactive) | 18.7 µM (inactive) | 8.07 µM (inactive) | 9.23 µM (inactive) | 5.16 µM (inactive) | 6.95 µM (inactive) | 37.3 µM (inactive) | 14.9 µM (inactive) | 58.7 µM (inactive) | 16.2 µM (inactive) | 5.11 µM (inactive) | 27.7 µM (inactive) | 35.4 µM (inactive) | 32.3 µM (inactive) | 16 µM (inactive) | 19.2 µM (inactive) | 47.6 µM (inactive)
Nc1ncnc2c1nc(Cl)n2C1OC(CO)C(O)C1O (stereo not given) | 22.1 µM (inactive) | 1.41 µM (inactive) | 27.2 µM (inactive) | 1.55 µM (inactive) | 5.7 µM (inactive) | 2.02 µM (inactive) | 0.714 µM (active) | 0.213 µM (active) | 0.546 µM (active) | 1.95 µM (inactive) | 0.966 µM (active) | 0.556 µM (active) | 2.21 µM (inactive) | 0.574 µM (active) | 1.44 µM (inactive) | 2.04 µM (inactive) | 0.607 µM (active) | 0.649 µM (active) | 0.906 µM (active) | 4.48 µM (inactive)
[O-][n+]1ccccc1Sc1nc(Sc2cccc[n+]2[O-])nc(Sc2cccc[n+]2[O-])n1 | 13 µM (inactive) | 2.92 µM (inactive) | 1.95 µM (inactive) | 0.248 µM (active) | 2.34 µM (inactive) | 1.8 µM (inactive) | 3.27 µM (inactive) | 0.444 µM (active) | 0.745 µM (active) | 1.36 µM (inactive) | 1.22 µM (inactive) | 1.51 µM (inactive) | 1.07 µM (active) | 2.03 µM (inactive) | 0.726 µM (active) | 1.88 µM (inactive) | 0.198 µM (active) | 1.19 µM (inactive) | 1.77 µM (inactive) | 2.4 µM (inactive)
O=C1c2c(Cl)c(Cl)c(Cl)c(Cl)c2C(=O)N1CCN(c1c(Cl)ssc1=O)c1c(Cl)ssc1=O | > 100 µM (inactive) | 49.3 µM (inactive) | 25.2 µM (inactive) | 22.5 µM (inactive) | 32.1 µM (inactive) | 24.2 µM (inactive) | 19 µM (inactive) | 16.4 µM (inactive) | 23.2 µM (inactive) | 40.9 µM (inactive) | 19.3 µM (inactive) | 21.2 µM (inactive) | 19.8 µM (inactive) | 17.1 µM (inactive) | 22.9 µM (inactive) | 54.8 µM (inactive) | 4.36 µM (inactive) | 19.5 µM (inactive) | 18.2 µM (inactive) | 16.9 µM (inactive)
CC(C)(C)[Si](C)(C)OCC#C[C@@]1(O)CCCCC1CC(Sc1ccccc1)Sc1ccccc1 (stereo not given in full) | 15.4 µM (inactive) | 15 µM (inactive) | 16.1 µM (inactive) | 15.1 µM (inactive) | 16.4 µM (inactive) | 15.8 µM (inactive) | 15.8 µM (inactive) | 12.5 µM (inactive) | 11.4 µM (inactive) | 14.9 µM (inactive) | 12.9 µM (inactive) | 15.6 µM (inactive) | 15.7 µM (inactive) | 10.7 µM (inactive) | 13.5 µM (inactive) | 21.9 µM (inactive) | 11.8 µM (inactive) | 14 µM (inactive) | 13.9 µM (inactive) | 15.5 µM (inactive)
CN(NC(=O)CCCl)C1=NCCCCN1 | > 100 µM (inactive) | > 100 µM (inactive) | > 100 µM (inactive) | > 100 µM (inactive) | > 100 µM (inactive) | > 100 µM (inactive) | > 100 µM (inactive) | > 100 µM (inactive) | > 100 µM (inactive) | > 100 µM (inactive) | > 100 µM (inactive) | > 100 µM (inactive) | > 100 µM (inactive) | > 100 µM (inactive) | > 100 µM (inactive) | > 100 µM (inactive) | > 100 µM (inactive) | > 100 µM (inactive) | > 100 µM (inactive) | > 100 µM (inactive)
c1ccc(/N=c2/sc3ccccc3s/c2=N/c2ccccc2)cc1 | 4.71 µM (inactive) | 2.67 µM (inactive) | 1.86 µM (inactive) | 1.72 µM (inactive) | 2.76 µM (inactive) | 1.86 µM (inactive) | 5.02 µM (inactive) | 1.82 µM (inactive) | 1.56 µM (inactive) | 1.96 µM (inactive) | 1.36 µM (inactive) | 1.84 µM (inactive) | 1.9 µM (inactive) | 1.65 µM (inactive) | 12.8 µM (inactive) | 1.99 µM (inactive) | > 100 µM (inactive) | 2.08 µM (inactive) | 1.58 µM (inactive) | 3.72 µM (inactive)
CC(C)[C@H](NC(=O)[C@H](C(C)C)N(Cc1ccccc1)Cc1ccccc1)C(=O)N(C)[C@H](C(=O)N1CCC[C@H]1C(=O)N(C)[C@H](C)C(=O)NCc1ccc(F)cc1)C(C)C (Bn2Val-V[NMeV]P[dNMeA]-{NH(4-F-benzyl)}) | 4.88 µM (inactive) | 4.38 µM (inactive) | 3.63 µM (inactive) | 4.25 µM (inactive) | 3.09 µM (inactive) | 2.12 µM (inactive) | 4.88 µM (inactive) | 2.34 µM (inactive) | 3.01 µM (inactive) | 3.82 µM (inactive) | 2.96 µM (inactive) | 3.48 µM (inactive) | 3.67 µM (inactive) | 3.82 µM (inactive) | 3.18 µM (inactive) | 4.24 µM (inactive) | 3.65 µM (inactive) | 1.95 µM (inactive) | 2.19 µM (inactive) | 5.19 µM (inactive)
COC(=O)c1c(C)cccc1C1CN=NC12Cc1ccccc1C2=O (stereo not given) | > 100 µM (inactive) | 35.1 µM (inactive) | > 45.1 µM (inactive) | > 100 µM (inactive) | > 93.5 µM (inactive) | > 100 µM (inactive) | > 100 µM (inactive) | > 100 µM (inactive) | 43.5 µM (inactive) | 60.4 µM (inactive) | 74.6 µM (inactive) | > 100 µM (inactive) | > 82 µM (inactive) | 38.1 µM (inactive) | 78.5 µM (inactive) | > 78 µM (inactive) | 38.6 µM (inactive) | > 100 µM (inactive) | 33.1 µM (inactive) | 36.1 µM (inactive)
NC1=NN(c2ccccc2)C2(O)c3ccncc3C3=NN(c4ccccc4)C(=O)C132 (stereo not given) | > 100 µM (inactive) | > 100 µM (inactive) | 63.1 µM (inactive) | > 100 µM (inactive) | > 100 µM (inactive) | > 100 µM (inactive) | > 100 µM (inactive) | > 100 µM (inactive) | > 100 µM (inactive) | > 100 µM (inactive) | > 100 µM (inactive) | > 100 µM (inactive) | > 100 µM (inactive) | > 100 µM (inactive) | > 100 µM (inactive) | > 100 µM (inactive) | > 10 µM (inactive) | > 100 µM (inactive) | > 100 µM (inactive) | > 100 µM (inactive)
COc1ccc2[nH]c3c(C)c4ccnc(NCCCN(C)CCCNC(=O)NCCCN(C)CCCNc5nccc6c(C)c7[nH]c8ccc(OC)cc8c7c(C)c56)c4c(C)c3c2c1 | 0.264 µM (active) | 2.14 µM (inactive) | 0.569 µM (active) | 0.202 µM (active) | 0.925 µM (active) | 1.35 µM (inactive) | 1.19 µM (inactive) | 0.369 µM (active) | 0.226 µM (active) | 0.989 µM (active) | 1.33 µM (inactive) | 0.265 µM (active) | 0.466 µM (active) | 0.69 µM (active) | 0.92 µM (active) | 1.03 µM (active) | 0.147 µM (active) | 0.245 µM (active) | 0.881 µM (active) | 1.6 µM (inactive)
O=C(NCCCCl)c1c(O)c2ccccc2[nH]c1=O | > 100 µM (inactive) | > 71 µM (inactive) | > 100 µM (inactive) | > 100 µM (inactive) | 50.6 µM (inactive) | > 94 µM (inactive) | > 100 µM (inactive) | > 41.3 µM (inactive) | > 65.5 µM (inactive) | > 87.3 µM (inactive) | > 50.9 µM (inactive) | > 76.2 µM (inactive) | > 100 µM (inactive) | > 73.3 µM (inactive) | > 100 µM (inactive) | > 100 µM (inactive) | > 100 µM (inactive) | > 100 µM (inactive) | > 100 µM (inactive) | > 100 µM (inactive)
CCCCCCCCCCCCCCC(O)C[N+](C)(CCO)CCO (stereo not given) | 1.49 µM (inactive) | 20.3 µM (inactive) | 2.06 µM (inactive) | 6.22 µM (inactive) | 17.7 µM (inactive) | 7.31 µM (inactive) | 11 µM (inactive) | 1.41 µM (inactive) | 1.64 µM (inactive) | 4.49 µM (inactive) | 2.47 µM (inactive) | 1.73 µM (inactive) | 6.12 µM (inactive) | 8.07 µM (inactive) | 1.72 µM (inactive) | 1.94 µM (inactive) | 1.57 µM (inactive) | 2.12 µM (inactive) | 4.27 µM (inactive) | 11.1 µM (inactive)
Oc1ncnc2c1nnn2CCCCCCCCCCCCn1nnc2c(O)ncnc21 | 20.2 µM (inactive) | > 100 µM (inactive) | > 100 µM (inactive) | > 100 µM (inactive) | 21.3 µM (inactive) | 23.4 µM (inactive) | > 100 µM (inactive) | 24.3 µM (inactive) | 20.4 µM (inactive) | 5.68 µM (inactive) | 36.9 µM (inactive) | > 78.7 µM (inactive) | > 100 µM (inactive) | 0.641 µM (active) | > 100 µM (inactive) | > 100 µM (inactive) | > 100 µM (inactive) | > 100 µM (inactive) | 25.7 µM (inactive) | 20.3 µM (inactive)
